Measurements as given in patent US20210322582A1, “RADIOACTIVE IMIDAZOTHIADIAZOLE DERIVATIVE COMPOUND” (Nihon Medi-Physics Co., Ltd., priority 2018, published 2021).

Columns and labels:
Assay type in all cases: in vivo
[1] = system: MDA-MB-231-transplanted tumor; experiment: Biodistribution of [^111In]ITDA3 in MDA-MB-231 cancer-bearing mouse; conditions: MDA-MB-231 mouse, 24 hours after administration
Method: HT-29 cells and MDA-MB-231 cells (5×10^6 cells/mouse) were subcutaneously inoculated into the left shoulders of 5-week old male BALB/c nude mice, respectively. A saline solution (100 μL) in which[^111In]ITDA3 (40 kBq) had been dissolved was administered to each of the cancer-bearing mice (n=5) via the tail vein. The HT-29 cancer-bearing mice were slaughtered after the lapse of 1, 4, and 24 hours from the administration, the MDA-MB-231 cancer-bearing mouse was slaughtered after the lapse of 24 hours from the administration, and the blood, spleen, pancreas, stomach, intestines, kidney, liver, heart, lungs, brain, HT-29 or MDA-MB-231-transplanted tumor, and muscle were recovered from each of the mice. The weight of each organ was measured, and the amount of radioactivity in each organ was measured by using a gamma counter. The accumulation of radioactivity in each organ except for stomach was expressed by % ID (injected dose)/g obtained by dividing the ratio of the amount of radioactivity of each organ to the administered amount of radioactivity by the organ weight. The stomach was expressed by % ID (injected dose).

MDA-MB-231 tumor = experiment: SPECT/CT imaging using [^111In]ITDA1; conditions: MDA-MB-231 cancer-bearing mouse, 24 hours from administration
Method: (§1) HT-29 cells (5×10^6 cells/mouse) and MDA-MB-231 cells (5×10^6 cells/mouse) were subcutaneously inoculated into the left shoulders of 5-week old male BALB/c nude mice, respectively. A saline solution (150 μL) in which [^111In]ITDA1 (23.8 to 26.2 MBq) had been dissolved was administered to each of the cancer-bearing mice via the tail vein. Each of the mice was subjected to SPECT/CT imaging after the lapse of 1, 4, 8, and 24 hours from the administration. U-SPECT-II/CT (single-pinhole collimator 0.6 or 1.0 mm, resolution: 0.45 mm) manufactured by Milab was used as the SPECT/CT device, and data were collected for 60 minutes in 1, 4, 8, and 24 hours from the administration.
(§2) The collected data were reconstructed by a three-dimensional ordered-subset expectation maximization (3D-OSEM) method. The results of HT-29 cancer-bearing mouse are shown in FIG. 6A, and the results of MDA-MB-231 cancer-bearing mouse are shown in FIG. 6B.

HT-29 tumor = experiment: SPECT/CT imaging using [^111In]ITDA1; conditions: HT-29 cancer-bearing mouse, 24 hours from administration
Method: as §1, §2

[2] = system: HT-29 tumor and MDA-MB-231 tumor; experiment: CA-IX selectivity of [^111In]ITDA1 in cancer-bearing mouse (HT-29 vs MDA-MB-231); conditions: 24 hours from administration
Method: HT-29 cells (5×10^6 cells/mouse) and MDA-MB-231 cells (5×10^6 cells/mouse) were subcutaneously inoculated into the left shoulders of 5-week old male BALB/c nude mice, respectively. A saline solution (100 μL) in which [^111In]ITDA1 (37 kBq) had been dissolved was administered to each of the cancer-bearing mice (n=5) via the tail vein. The mice were slaughtered after the lapse of 24 hours from the administration, and the blood, transplanted tumor, and muscle were recovered from each of the mice. The weight of each organ was measured, and the amount of radioactivity in each organ was measured by using a gamma counter. The accumulation of radioactivity in each organ was expressed by % ID (injected dose)/g obtained by dividing the ratio of the amount of radioactivity of each organ to the administered amount of radioactivity by the organ weight.

Row | SMILES | Accumulation of radioactivity: Blood [1] [% ID/g] | Accumulation of radioactivity: Brain [1] [% ID/g] | Accumulation of radioactivity: Heart [1] [% ID/g] | Accumulation of radioactivity: Intestines [1] [% ID/g] | Accumulation of radioactivity: Kidney [1] [% ID/g] | Accumulation of radioactivity: Liver [1] [% ID/g] | Accumulation of radioactivity: Lungs [1] [% ID/g] | Accumulation of radioactivity: MDA-MB-231 tumor [1] [% ID/g] | Accumulation of radioactivity: Muscle [1] [% ID/g] | Accumulation of radioactivity: Pancreas [1] [% ID/g] | Accumulation of radioactivity: Spleen [1] [% ID/g] | Accumulation of radioactivity: Stomach [1] [% ID] | Tumor/blood [1] | Tumor/muscle [1] | Accumulation in the transplanted tumor (SPECT/CT) (MDA-MB-231 tumor) | Accumulation of radioactivity in the transplanted tumor (SPECT/CT) (HT-29 tumor) | CA-IX selective tumor accumulation [2] | Transplanted tumor/blood ratio, HT-29 vs MDA-MB-231 [2] | Transplanted tumor/muscle ratio, HT-29 vs MDA-MB-231 [2] | Amount accumulated in the HT-29 tumor vs the MDA-MB-231 tumor ([2]; Welch's t-test, 1% significance level)
1 | NS(=O)(=O)c1nn2cc(-c3ccc(NC(=O)CCC(C(=O)O)N4CCN(CC(=O)[O-])CCN(CC(=O)[O-])CCN(CC(=O)[O-])CC4)cc3)nc2s1.[111In+3] (centres unmarked) [[^111In]ITDA3] | 0.06 ± 0.02 | 0.24 ± 0.04 | 1.24 ± 0.19 | 6.66 ± 0.86 | 49.65 ± 5.04 | 2.96 ± 0.64 | 0.93 ± 0.18 | 0.72 ± 0.27 | 0.99 ± 0.26 | 2.00 ± 0.54 | 0.12 ± 0.02 | 5.49 ± 0.55 | 11.97 ± 6.08 | 0.77 ± 0.32 |  |  |  |  |  | 
2 | NS(=O)(=O)c1nn2cc(-c3ccc(NC(=O)CN4CCN(CC(=O)O)CCN(CC(=O)O)CCN(CC(=O)O)CC4)cc3)nc2s1.[111In+3] [[^111In]ITDA1, [^111In]indium(III)2,2′,2″-(10-(2-oxo-2-((4-(2-sulfamoylimidazo[2,1-b][1,3,4]thiadiazol-6-yl)phenyl)amino)ethyl)-1,4,7,10-tetraazacyclododecan-1,4,7-triyl) triacetic acid] |  |  |  |  |  |  |  |  |  |  |  |  |  |  | not observed | highly observed | confirmed | significant difference was similarly observed | significant difference was similarly observed | significant difference was observed
